Data published in the Kinase Knowledgebase extract (Sharma et al. 2016).

Target: PIK3CG (human) (UniProt P48736)
Assay: Assessment of PIK3CG Kinase Activity

Chain of PIK3CG (human) (P48736 whole entry, looked up): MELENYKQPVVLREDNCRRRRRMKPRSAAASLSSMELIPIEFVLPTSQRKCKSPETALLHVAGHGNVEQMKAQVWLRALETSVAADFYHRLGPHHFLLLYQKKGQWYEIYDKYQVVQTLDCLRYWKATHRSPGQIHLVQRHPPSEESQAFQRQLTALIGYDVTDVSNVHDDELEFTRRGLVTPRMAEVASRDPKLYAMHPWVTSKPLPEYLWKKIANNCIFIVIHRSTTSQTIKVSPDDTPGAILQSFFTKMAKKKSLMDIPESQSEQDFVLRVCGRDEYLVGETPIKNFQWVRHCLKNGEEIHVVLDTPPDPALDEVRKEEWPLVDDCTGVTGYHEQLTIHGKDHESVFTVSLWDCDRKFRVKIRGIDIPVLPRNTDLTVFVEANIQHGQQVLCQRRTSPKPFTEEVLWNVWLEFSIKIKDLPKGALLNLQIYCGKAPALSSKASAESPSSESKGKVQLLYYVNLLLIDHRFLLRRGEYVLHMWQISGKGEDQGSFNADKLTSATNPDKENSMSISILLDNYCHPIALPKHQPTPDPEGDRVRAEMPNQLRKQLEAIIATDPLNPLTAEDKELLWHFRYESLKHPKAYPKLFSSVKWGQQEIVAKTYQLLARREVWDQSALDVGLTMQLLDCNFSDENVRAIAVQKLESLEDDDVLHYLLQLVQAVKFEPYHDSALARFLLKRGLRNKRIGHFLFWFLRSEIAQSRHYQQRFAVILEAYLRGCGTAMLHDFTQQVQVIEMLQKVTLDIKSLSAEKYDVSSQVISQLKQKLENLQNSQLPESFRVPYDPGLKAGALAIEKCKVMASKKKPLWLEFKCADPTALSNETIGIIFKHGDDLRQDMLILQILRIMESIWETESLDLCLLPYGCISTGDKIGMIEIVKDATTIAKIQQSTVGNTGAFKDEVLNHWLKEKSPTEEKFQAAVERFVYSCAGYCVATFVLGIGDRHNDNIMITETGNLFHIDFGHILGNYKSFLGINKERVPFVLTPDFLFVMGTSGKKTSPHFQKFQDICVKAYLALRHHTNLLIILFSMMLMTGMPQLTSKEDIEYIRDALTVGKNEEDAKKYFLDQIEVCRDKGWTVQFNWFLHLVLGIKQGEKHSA

Structure (SMILES) | IC50
COc1cc2c(Oc3ccc(C4CCN(C(C)=O)CC4)cc3)c(C(=O)Nc3nn[nH]n3)sc2cc1C | 14 nM
COc1cc2c(Oc3ccc(C(=O)c4ccccc4)cc3)c(C(=O)Nc3nn[nH]n3)sc2cc1C | 27 nM
COc1cc2c(OC[C@H](C)c3ccccc3)c(C(=O)Nc3nn[nH]n3)sc2cc1C | 56 nM
COc1cc2c(Oc3ccc(C4CCN(C(=O)C(C)C)CC4)cc3)c(C(=O)Nc3nn[nH]n3)sc2cc1C | 11 nM
COc1cc2c(Oc3ccc(C(O)c4ccccc4)cc3)c(C(=O)Nc3nn[nH]n3)sc2cc1C (configuration not stated) | 8 nM
COc1cc2sc(C(=O)Nc3nnn[nH]3)c(Oc3ccc(CCCSC4CCCCC4)cc3)c2cc1C | 240 nM
COc1cc2c(Oc3ccc(C4CCNCC4)cc3)c(C(=O)Nc3nn[nH]n3)sc2cc1C | 365 nM
COc1cc2sc(C(=O)Nc3nnn[nH]3)c(OCc3ccc4ccccc4c3)c2cc1OC | 210 nM
COc1cc2c(Oc3ccc(C4CCSCC4)cc3)c(C(=O)Nc3nn[nH]n3)sc2cc1C | 8 nM
COc1cc2c(Oc3ccc(C4CCN(C(=O)C(C)(C)NC(=O)OC(C)(C)C)CC4)cc3)c(C(=O)Nc3nn[nH]n3)sc2cc1C | 20 nM
COc1cc2c(Oc3ccc(C4CCCC(O)C4)cc3)c(C(=O)Nc3nn[nH]n3)sc2cc1C (configuration not stated) | 8 nM
COc1cc2sc(C(=O)Nc3nn[nH]n3)c(Oc3cccc(C(=N)N)c3)c2cc1C | 388 nM
COc1cc2sc(C(=O)Nc3nnn[nH]3)c(Oc3ccc(CCCSc4ccc(Cl)cc4)cc3)c2cc1C | 2610 nM
COc1cc2c(Oc3ccc(C4CC(C)(C)CC(C)(C)C4)cc3)c(C(=O)Nc3nn[nH]n3)sc2cc1C | 325 nM
COc1cc2c(Oc3ccc(C(C)(C)C)c(C(C)(C)C)c3)c(C(=O)Nc3nn[nH]n3)sc2cc1C | 2340 nM
COc1cc2c(Oc3ccc(C(C4CCCCC4)N4CCCCC4)cc3)c(C(=O)Nc3nn[nH]n3)sc2cc1C (configuration not stated) | 715 nM
COc1cc2c(Oc3ccc(C4CCOCC4)cc3)c(C(=O)Nc3nn[nH]n3)sc2cc1C | 9 nM
